Source: US20120225123A1, “Use of Synergistic Combinations of an Avermectin and an Antineoplastic Compounds for the Treatment of Hematological Malignancies” (UNIVERSITY HEALTH NETWORK, priority 2009, published 2012)
pEC50: −log10 of the molar value.

Columns and labels:
Format in all cases: cell-based, human
[1] = test system: OCI-AML2, HL60, and KG1a leukemia cell lines; assay: Chemical screen for cytotoxic compounds, MTS assay; conditions: 72 hours, all cell lines in the screen, read-out: EC50, reduced cell viability
Description: HL60, KG1a, and OCI-AML2 leukemia cells were seeded into 96-well polystyrene tissue culture plates (Nunc). After seeding, cells were treated with aliquots of the chemical library (=100) at increasing concentrations (3 to 50 μM) with a final DMSO concentration of 0.5%. Seventy two hours after incubation, cell growth and viability was measured by the MTS assay. Liquid handling was performed by a Biomek FX Laboratory Automated Workstation (Beckman Coulter Fullerton, Calif.).
(§1) Cell growth and viability was assessed by the MTS assay (Promega, Madison, Wis.) according to the manufacturer's instructions and as previously described.^12 Cell death was measured by Annexin V-fluoroscein isothiocyanate (FITC) and Propidium Iodide (PI; Biovision Research Products, Mountain View, Calif.) staining and flow cytometry according to the manufacturer's instructions and as previously described.^13 To identify CD34+ cells, a normal PBSC sample was co-stained with PE-anti-CD34+ (Beckman Coulter, Marseille France), and APC-anti-CD45 (Becton Dickenson, San Jose Calif.).
A small chemical library (n=100) focused on anti-microbials and metabolic regulators with wide therapeutic windows and well understood pharmacokinetics was compiled. […] Seventy two hours after incubation, cell growth and viability was measured by the MTS assay. […]

[2] = test system: acute myeloid leukemia (AML) patient samples; assay: Cell viability by Annexin V and PI staining, AML patient samples; conditions: 48 hours
Description: Primary human acute myeloid leukemia (AML) samples were isolated from fresh bone marrow and peripheral blood samples of consenting patients. Similarly, primary normal hematopoietic cells were obtained from healthy consenting volunteers donating peripheral blood mononuclear cells
(PBSCs) for stem cell transplantation. The mononuclear cells were isolated from the samples by Ficoll density centrifugation. Primary cells were cultured at 37° C. in IMDM supplemented with 20% FCS and appropriate antibiotics.
as §1
Given the cytotoxicity of IVM toward leukemia cell lines, its cytotoxicity was compared to primary normal hematopoietic cells and acute myeloid leukemia (AML) patient samples (n=4 intermediate risk cytogenetics, n=1 good risk cytogenetics, and n=1 unknown cytogenetics). […]

[3] = test system: normal hematopoetic cells; assay: Clonogenic (methylcellulose colony forming) assay, normal cells; conditions: ivermectin 6 μM, n=3
Description: (§2) To assess clonogenic growth, primary AML cells or granulocyte colony-stimulating factor (G-CSF) mobilized PBSCs (4×10^5/mL) were treated with IVM or buffer control for 24 hours. After treatment, cells were washed and 10^5 cell/mL were plated in duplicate in MethoCult GF H4434 medium (StemCell Technologies, Vancouver, BC) containing 1% methycellulose in IMDM, 30% FCS, 1% bovine serum albumin, 3 U/mL of recombinant human erythropoietin, 10^−4 M of 2-mercaptoethanol, 2 mM of L-glutamine, 50 ng/mL of recombinant human stem cell factor, 10 ng/mL of GM-CSF, and 10 ng/mL of rh IL-3. Alternatively, primary cells were plated directly into MethoCult GF H4434 medium with ivermectin. Seven days (AML samples) or 14 days (normal PBCS) after plating, the number of colonies containing 10 or more cells for AML or over 100 cells for normal samples was counted as previously described.^14
(§3) Ivermectin was also evaluated in clonogenic assays in primary normal hematopoietic and AML cells. Ivermectin (6 μM) had minimal effects on the clonogenic growth of normal hematopoetic cells (n=3) with <15% reduction in clonogenic growth. In contrast, ivermectin reduced clonogenic growth by ≧40% in 3/6 primary AML samples (FIG. 1D). Similar effects were noted when primary cells were directly plated into clonogenic assays with ivermectin (FIG. 1G).

primary AML samples = assay: Clonogenic (methylcellulose colony forming) assay, primary AML; conditions: ivermectin 6 μM; in 3/6 primary AML samples
Description: as §2, §3

OCI-AML2 cells [4] = assay: Cell death, viability and cell cycle in OCI-AML2 cells
Description: as §1
Cell cycle analysis was performed as described previously.^15 Briefly, cells were harvested, washed with cold PBS, and resuspended in 80% cold ethanol. Cells were then treated with 100 ng/mL DNase-free RNase A (Invitrogen) at 37° C. for 30 min, washed with cold PBS, and resuspended in PBS with 50 μg/mL propidium iodide. DNA content was analyzed by flow cytometry (FACSCalibur; Becton Dickinson). The percentage of cells in each phase of the cell cycle was calculated with FlowJo version 8.8 (TreeStar, Ashland, Oreg.).

OCI-AML2 cells [5] = assay: Reactive oxygen species, Carboxy-H2DCFDA staining, OCI-AML2; conditions: increasing concentrations, flow cytometry
Description: Data were analyzed with FlowJo version 8.8 (TreeStar, Ashland, Oreg.).

ivermectin was tested, and the pEC50 [1] was over 5.00, the cytotoxicity [2] was “cytotoxic to AML patient samples at low micromolar concentrations” and the “reduction in clonogenic growth” value [3] was under 15%. The “reduction in clonogenic growth” value (primary AML samples) was at least 40%, the cell death (OCI-AML2 cells [4]; 24 hours of treatment) was “induced cell death” and the cell cycle (OCI-AML2 cells [4]; times and concentrations that preceded cell death, PI DNA content) was “induced G2 cell cycle arrest”. The ROS production (OCI-AML2 cells [5]) was “increased ROS production”.
